Patent publication US8703964B2, “Bendamustine cyclopolysaccharide compositions” (Supratek Pharma Inc., priority 2009, dated 2014)

Tests used:
[1] = tested on: Lewis Lung carcinoma 3LL cells; assay: Murine experimental lung metastasis model (Example 26); type: in vivo, C57Bl/6 mice; settings: 50 mg/kg
Protocol: Female Charles Rivers C57Bl/6 mice, aged 5 to 6 weeks, were purchased from Charles River Canada Inc. The animals were kept 5 per cage with an air filter cover under light (12 light/dark cycle, light on at 6H00) and temperature (22°±1° C.)-controlled environment. All manipulations of animals were performed under a sterilized laminar hood. The animals had ad libitum access to Purina mouse chow (Pro Lab PMH 4018, Trademark of Agway, Syracuse, N.Y.) and water. These animal studies were conducted according to the “Guidelines for Care and Use of Experimental Animals”. Tumor Cell Culture:
Lewis Lung carcinoma 3LL cells were cultured in the appropriated culture medium. The cells were harvested in their logarithmic growth phase for the preparation of tumor implantation.
Lewis Lung carcinoma 3LL cells (2.0 to 5.0×10^5 cells in 200 ul PBS) were implanted intravenously by tail vein to establish experimental lung metastasis tumor models.
The treatments were performed on day after tumor implantation. The animals were dosed with the following dosing solutions.
non-formulated bendamustine (BM), (50 mg/kg)
Bendamustine (50 mg/kg) in 20% SBECD, 1% LMWP
Metastasis formation was evaluated by counting the numbers of metastasis spots on the lung surface. Routine metastasis examination were done for all organs at the end of the study.

[2] = tested on: Human breast carcinoma (MDA-MB 231) subcutaneous solid tumours; assay: Human breast carcinoma MDA-MB 231 s.c. solid tumours in nude mice (Example 27); type: in vivo, balb/c nu/nu mice; settings: 35 mg/kg
Protocol: balb/c mice aged 5 to 6 weeks were purchased from Charles River Canada Inc. The animals were kept 5 per cage with an air filter cover under light (12 light/dark cycle, light on at 6 H00) and temperature (22° C.±1° C.)-controlled environment. All manipulations of animals were performed under a sterilized laminar hood. The animals had ad libitum access to Purina mouse chow (Pro Lab PMH 4018, Trademark of Agway, Syracuse, N.Y.) and water. These animal studies were conducted according to the “Guidelines for Care and Use of Experimental Animals”. Tumor Cell Culture: Human breast cancer cells MDA-MB 231 were cultured in the appropriated culture medium. The cells were harvested in their logarithmic growth phase for the preparation of tumor implantation. Tumor Implantation: Human tumor or myeloma cells (2.5 to 5.0×10^6 cells) were implanted subcutaneously in 0.200 mL of medium containing 30% Matrigel on the two flanks of balb/c nu/nu mice through a 1 to 2 cm long 20-gauge needle. Treatments: 2 to 3 weeks after tumor cell implantation, animals that developed s.c. solid tumors were selected and divided into several homogeneous groups (n=5 animals per group or dose) with respect to tumor size (0.5 to 0.8 cm in diameter). The treatments were performed next day. The animals were dosed with the following dosing solutions. Control: (0.9%, NaCl) Compositions:
non-formulated Bendamustine, (35 mg/kg)
Bendamustine (35 mg/kg) in 40% SBECD, 1% protamine sulfate (formulated BM)
Subcutaneous solid tumor measurements were performed on the day of first injection and at 3- to 4-day intervals thereafter. The two largest perpendicular diameters of each tumor were measured with calipers and tumor sizes were estimated using the formula: TV=L×W/2 where TV: tumor volume; L: length; W: width. The body weights of animals were also noted.

[3] = Pharmacokinetics of bendamustine dosed to rats, composition with SBECD and cetylpyridinium chloride (Example 11); type: in vivo; settings: female, Sprague-Dawley, rat, plasma, iv, i.v. 20 mg/kg, read-out: Concentration of bendamustine in rat plasma, Mean (SEM)
Protocol: Control: 6 mg/mL bendamustine hydrochloride, 10.2 mg/mL of mannitol in 0.9% NaCl; dose of 20 mg/kg
Inventive Composition: 5 mg/g bendamustine hydrochloride, 40% w/w sodium sulfobutyl ether β-cyclodextrin, 0.5% cetylpyridinium chloride, 8.5 mg/g mannitol in water (produced following the procedure of Example 8); dose of 20 mg/kg.
Female Sprague-Dawley rats (250-350 g). The animals were kept three per cage with an air filter cover under light (12 h light/dark cycle, light on at 06 h00) and controlled temperature 22° C.+/−1° C. All manipulations with the animals were performed under a sterilized laminar hood. The animals had ad libitum access to Purina mouse chow and water. The animals were fasted overnight and anesthetized, before dosing. Dosing and Sampling: The inventive bendamustine composition and control were administered intravenously to rats in tail vein. After time intervals of 5, 15, 30, 45 min, 1, 1.5, 2 and 3 hrs post-injection, blood samples were collected. The rats were anesthetized by general inhalation of isoflurane. The blood samples were collected from the jugular vein with heparinized tube and kept on ice. Blood was immediately centrifuged, and plasma was separated. The plasma samples were immediately extracted. Sample Extraction and Analysis: The plasma samples 0.100 mL were transferred to plastic tubes. The samples were extracted with 0.400 mL of 100 mM HCl in acetonitrile while being shaken vigorously for 30 seconds. The samples were centrifuged at 10000 RPM for 5 minutes. The supernatant was separated. The samples were frozen in dry ice and kept at −80° C. until HPLC analysis. 20 microliter aliquots were injected into the HPLC for analysis. The HPLC Conditions: C18 reversed phase column 50×4.6 mm, Symmetry/Shield 3.5 micrometer Column temperature 30° C. Flow rate 1.5 mL/min Injection volume 20 microliters Fluorescence detection at wavelengths: excitation 327 nm, emission 420 nm Mobile phase: Buffer A: 5% acetonitrile 0.1% TFA Buffer B: 90% acetonitrile 0.1% TFA Run time: 10 min The improved pharmacokinetic profiles of bendamustine for tested composition versus the control is shown in Table 1 below.

## Cn1c(CCCC(=O)O)nc2cc(N(CCCl)CCCl)ccc21 [BM, 4-[5-[bis(2-chloroethyl)amino]-1-methylbenzimidazol-2-yl]butanoic acid]
[1]; 3LL i.v. implanted, C57Bl/6 mice
  Lung metastasis number: 56.1 ± 9.5
[1]; 3LL lung metastasis, mice
  Inhibition on metastasis formation vs control: 14.4%
  Inhibition on metastasis formation vs not formulated BM: 0%
[2]; day 0
  Tumor weight after treatment, Average (SEM): 0.237 (0.008) g
[2]; day 2
  Tumor weight after treatment, Average (SEM): 0.250 (0.028) g
[2]; day 4
  Tumor weight after treatment, Average (SEM): 0.294 (0.027) g
[2]; day 7
  Tumor weight after treatment, Average (SEM): 0.313 (0.030) g
[2]; day 9
  Tumor weight after treatment, Average (SEM): 0.349 (0.038) g
[2]; day 11
  Tumor weight after treatment, Average (SEM): 0.417 (0.046) g
[2]; day 14
  Inhibition % vs control (on day 14): 70.2%
  Tumor volume on day 14: 0.54 ± 0.06 g
  Tumor weight after treatment, Average (SEM): 0.537 (0.055) g
[2]; nude mice with MDA-MB 231 tumours
  Body weight on day 14: 18.1 ± 0.39 g
[3]; 0.08 h post injection
  concentration at 0.08 h: 12300 ng/mL
[3]; 0.25 h post injection
  concentration at 0.25 h: 7620 ng/mL
[3]; 0.5 h post injection
  concentration at 0.5 h: 3050 ng/mL
[3]; 0.75 h post injection
  concentration at 0.75 h: 966 ng/mL
[3]; 1 h post injection
  concentration at 1 h: 414 ng/mL
[3]; 1.5 h post injection
  concentration at 1.5 h: 133 ng/mL
[3]; 2 h post injection
  concentration at 2 h: 54 ng/mL
[3]; 3 h post injection
  concentration at 3 h: 9 ng/mL
